Laboratory results from patent US5314901A, “1,2,5,6-tetrahydropyridine oxime compounds” (Beecham Group p.l.c., priority 1990, dated 1994).
Where a name gives a salt, the structure may show the parent alone.

Tests used:
[1] = target: muscarinic receptors (3H-QNB), cerebral cortex; test: Radio ligand binding: displacement of the muscarinic antagonist 3H-Quinuclidinyl Benzilate (3H-QNB) from rat cerebral cortex membranes; parameters: species or system Hooded Lister rats; conditions: displacement of 0.27 nM 3H-QNB (muscarinic antagonist), 37° C., 30 min
[2] = target: muscarinic receptors (3H-OXO-M), cerebral cortex; test: Radio ligand binding: displacement of the muscarinic agonist 3H-Oxotremorine-M (3H-OXO-M) from rat cerebral cortex membranes; parameters: species or system Hooded Lister rats; conditions: displacement of 2 nM 3H-OXO-M (muscarinic agonist), 2 mM magnesium chloride, 37° C., 30 min

Structure (SMILES)	IC50 [1]	IC50 [2]
CON=C(Cl)C1=CCCN(C)C1 [E 1, 1-Methyl-1,2,5,6-tetrahydropyridin-3-yl-N-methoxycarboximidoyl chloride oxalate salt]	2800 nM	259 nM
CON=C(C#N)C1=CCCN(C)C1 [E 3, α-(Methoxyimino)-α-(1-methyl-1,2,5,6-tetrahydropyridin-3-yl) acetonitrile oxalate salt]	9500 nM	215 nM
CO/N=C(\CF)C1=CCCN(C)C1 [E 6, Z-1-Methyl-3-(α-fluoroacetyl)-1,2,5,6-tetrahydropyridine-O-methyl oxime oxalate salt]	8500 nM	620 nM
CON=C(Cl)C1=CCCNC1 [E 9, 1,2,5,6-Tetrahydropyridin-3-yl-N-methoxycarboximidoyl chloride oxalate salt]	4700 nM	180 nM
CCN1CCC=C(C(C#N)=NOC)C1 [E 11, α-(Methoxyimino)-α-(1-ethyl-1,2,5,6-tetrahydropyridin-3-yl) acetonitrile oxalate salt]		1180 nM
CON=C(C#N)C1=CCCNC1 [E 10, α-(Methoxyimino)-α-(1,2,5,6-tetrahydropyridin-3-yl)acetonitrileoxalate salt]	1150 nM	35 nM
CO/N=C(\CF)C1=CCCNC1 [E 7, Z-3-(α-Fluoroacetyl)-1,2,5,6-tetrahydropyridine-O-methyl oxime hydrochloride salt]	17000 nM	420 nM
CON=C(F)C1=CCCN(C)C1 [E 2, 1-Methyl-1,2,5,6-tetrahydropyridin-3-yl-N-methoxycarboximidoyl fluoride oxalate salt]	1500 nM	39 nM
CON=C(C1=CCCN(C)C1)C(F)(F)F [E 4, E- and Z-1-Methyl-3-(α,α,α-trifluoroacetyl)-1,2,5,6-tetrahydropyridine-O-methyl oxime oxalate salt]	16500 nM	225 nM
CON=C(C1=CCCN(C)C1)C(F)F [E 5, E- and Z-1-Methyl-3-(α,α-difluoroacetyl)-1,2,5,6-tetrahydropyridine-O-methyl oxime oxalate salt]		1250 nM
CON=C(F)C1=CCCNC1 [E 8, 1,2,5,6-Tetrahydropyridin-3-yl-N-methoxycarboximidoyl fluoride oxalate salt]	2850 nM	41 nM
